Patent US20260053811A1, “METHODS OF TREATING HYPERTENSION IN OBESE SUBJECTS” (Mineralys Therapeutics, Inc., priority 2022, published 2026)

Test system: hypertensive subjects
Assay: Adverse events (TEAEs, SAEs, AESI, study drug discontinuation, dose modification);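 also: counts of spontaneously reported adverse events in the Safety Analysis Set, subjects grouped by treatment actually received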
Assay type: in vivo, human
Settings: Part 1
Description: In analyses performed on the Safety Analysis Set, subjects will be analyzed according to their actual treatment received.

CC(=O)N[C@H]1CC[C@H](NC(=O)CN2CCN(c3nncc(-c4ccc(C)cc4)n3)CC2)CC1 [Compound A HBr]
On-treatment TEAE: General disorders and administration site conditions (50 mg QD (N = 28)): 2 (7.1) n (%)
On-treatment TEAE: General disorders and administration site conditions, Mild (50 mg QD (N = 28)): 1 (3.6) n (%)
On-treatment TEAE: Glomerular filtration rate decreased (50 mg QD (N = 28)): 0 n (%)
On-treatment TEAE: Headache (50 mg QD (N = 28)): 1 (3.6) n (%)
On-treatment TEAE: Headache, Mild (50 mg QD (N = 28)): 1 (3.6) n (%)
On-treatment TEAE: Hyperkalaemia (50 mg QD (N = 28)): 3 (10.7) n (%)
On-treatment TEAE: Hyperkalaemia, Mild (50 mg QD (N = 28)): 3 (10.7) n (%)
On-treatment TEAE: Hyperkalaemia, Moderate (50 mg QD (N = 28)): 0 n (%)
On-treatment TEAE: Hyperkalaemia, Severe (50 mg QD (N = 28)): 0 n (%)
On-treatment TEAE: Hypertension (50 mg QD (N = 28)): 2 (7.1) n (%)
On-treatment TEAE: Hypertension, Moderate (50 mg QD (N = 28)): 2 (7.1) n (%)
On-treatment TEAE: Infections and infestations (50 mg QD (N = 28)): 2 (7.1) n (%)
On-treatment TEAE: Infections and infestations, Mild (50 mg QD (N = 28)): 0 n (%)
On-treatment TEAE: Infections and infestations, Moderate (50 mg QD (N = 28)): 2 (7.1) n (%)
On-treatment TEAE: Investigations (50 mg QD (N = 28)): 1 (3.6) n (%)
On-treatment TEAE: Investigations, Mild (50 mg QD (N = 28)): 1 (3.6) n (%)
On-treatment TEAE: Investigations, Moderate (50 mg QD (N = 28)): 0 n (%)
On-treatment TEAE: Metabolism and nutrition disorders (50 mg QD (N = 28)): 5 (17.9) n (%)
On-treatment TEAE: Metabolism and nutrition disorders, Mild (50 mg QD (N = 28)): 5 (17.9) n (%)
On-treatment TEAE: Metabolism and nutrition disorders, Moderate (50 mg QD (N = 28)): 0 n (%)
On-treatment TEAE: Nervous system disorders (50 mg QD (N = 28)): 2 (7.1) n (%)
On-treatment TEAE: Nervous system disorders, Mild (50 mg QD (N = 28)): 1 (3.6) n (%)
On-treatment TEAE: Orthostatic hypotension (50 mg QD (N = 28)): 0 n (%)
On-treatment TEAE: Orthostatic hypotension, Mild (50 mg QD (N = 28)): 0 n (%)
On-treatment TEAE: Psychiatric disorders (50 mg QD (N = 28)): 0 n (%)
On-treatment TEAE: Psychiatric disorders, Moderate (50 mg QD (N = 28)): 0 n (%)
On-treatment TEAE: Urinary tract infection (50 mg QD (N = 28)): 2 (7.1) n (%)
On-treatment TEAE: Urinary tract infection, Mild (50 mg QD (N = 28)): 1 (3.6) n (%)
On-treatment TEAE: Vascular disorders (50 mg QD (N = 28)): 2 (7.1) n (%)
On-treatment TEAE: Vascular disorders, Mild (50 mg QD (N = 28)): 0 n (%)
On-treatment TEAE: Vascular disorders, Moderate (50 mg QD (N = 28)): 2 (7.1) n (%)
On-treatment TEAE: any, Mild (50 mg QD (N = 28)): 4 (14.3) n (%)
On-treatment TEAE: any, Moderate (50 mg QD (N = 28)): 6 (21.4) n (%)
On-treatment TEAE: any, Severe (50 mg QD (N = 28)): 0 n (%)
Subjects with any On-treatment TEAEs leading to withdrawal from study drug (50 mg QD (N = 28)): 0 n (%)
TEAE leading to permanent discontinuation from study drug: Activated partial thromboplastin time prolonged (50 mg QD (N = 28)): 0 n (%)
TEAE leading to permanent discontinuation from study drug: Cardiac disorders (50 mg QD (N = 28)): 0 n (%)
TEAE leading to permanent discontinuation from study drug: Coronary artery disease (50 mg QD (N = 28)): 0 n (%)
TEAE leading to permanent discontinuation from study drug: Dizziness (50 mg QD (N = 28)): 0 n (%)
TEAE leading to permanent discontinuation from study drug: Hyperkalaemia (50 mg QD (N = 28)): 0 n (%)
TEAE leading to permanent discontinuation from study drug: Hypertension (50 mg QD (N = 28)): 0 n (%)
TEAE leading to permanent discontinuation from study drug: Hypotension (50 mg QD (N = 28)): 0 n (%)
TEAE leading to permanent discontinuation from study drug: Investigations (50 mg QD (N = 28)): 0 n (%)
TEAE leading to permanent discontinuation from study drug: Metabolism and nutrition disorders (50 mg QD (N = 28)): 0 n (%)
TEAE leading to permanent discontinuation from study drug: Nervous system disorders (50 mg QD (N = 28)): 0 n (%)
TEAE leading to permanent discontinuation from study drug: Orthostatic hypotension (50 mg QD (N = 28)): 0 n (%)
TEAE leading to permanent discontinuation from study drug: Vascular disorders (50 mg QD (N = 28)): 0 n (%)
On-treatment TEAE: Blood and lymphatic system disorders (100 mg QD (N = 30)): 0 n (%)
On-treatment TEAE: Blood and lymphatic system disorders, Mild (100 mg QD (N = 30)): 0 n (%)
On-treatment TEAE: Blood creatinine increased (100 mg QD (N = 30)): 3 (10.0) n (%)
On-treatment TEAE: Blood creatinine increased, Mild (100 mg QD (N = 30)): 3 (10.0) n (%)
On-treatment TEAE: Cardiac disorders (100 mg QD (N = 30)): 0 n (%)
On-treatment TEAE: Cortisol decreased (100 mg QD (N = 30)): 0 n (%)
On-treatment TEAE: Cortisol decreased, Mild (100 mg QD (N = 30)): 0 n (%)
On-treatment TEAE: Dizziness (100 mg QD (N = 30)): 0 n (%)
On-treatment TEAE: Gastrointestinal disorders (100 mg QD (N = 30)): 2 (6.7) n (%)
On-treatment TEAE: Gastrointestinal disorders, Mild (100 mg QD (N = 30)): 2 (6.7) n (%)
On-treatment TEAE: General disorders and administration site conditions (100 mg QD (N = 30)): 0 n (%)
On-treatment TEAE: General disorders and administration site conditions, Mild (100 mg QD (N = 30)): 0 n (%)
On-treatment TEAE: Glomerular filtration rate decreased (100 mg QD (N = 30)): 5 (16.7) n (%)
On-treatment TEAE: Headache (100 mg QD (N = 30)): 0 n (%)
On-treatment TEAE: Headache, Mild (100 mg QD (N = 30)): 0 n (%)
On-treatment TEAE: Hyperkalaemia (100 mg QD (N = 30)): 8 (26.7) n (%)
On-treatment TEAE: Hyperkalaemia, Mild (100 mg QD (N = 30)): 8 (26.7) n (%)
On-treatment TEAE: Hyperkalaemia, Moderate (100 mg QD (N = 30)): 0 n (%)
On-treatment TEAE: Hyperkalaemia, Severe (100 mg QD (N = 30)): 0 n (%)
On-treatment TEAE: Hypertension (100 mg QD (N = 30)): 0 n (%)
On-treatment TEAE: Hypertension, Moderate (100 mg QD (N = 30)): 0 n (%)
On-treatment TEAE: Infections and infestations (100 mg QD (N = 30)): 2 (6.7) n (%)
On-treatment TEAE: Infections and infestations, Mild (100 mg QD (N = 30)): 0 n (%)
On-treatment TEAE: Infections and infestations, Moderate (100 mg QD (N = 30)): 2 (6.7) n (%)
On-treatment TEAE: Investigations (100 mg QD (N = 30)): 8 (26.7) n (%)
On-treatment TEAE: Investigations, Mild (100 mg QD (N = 30)): 6 (20.0) n (%)
On-treatment TEAE: Investigations, Moderate (100 mg QD (N = 30)): 2 (6.7) n (%)
On-treatment TEAE: Metabolism and nutrition disorders (100 mg QD (N = 30)): 8 (26.7) n (%)
On-treatment TEAE: Metabolism and nutrition disorders, Mild (100 mg QD (N = 30)): 8 (26.7) n (%)
On-treatment TEAE: Metabolism and nutrition disorders, Moderate (100 mg QD (N = 30)): 0 n (%)
On-treatment TEAE: Nervous system disorders (100 mg QD (N = 30)): 0 n (%)
On-treatment TEAE: Nervous system disorders, Mild (100 mg QD (N = 30)): 0 n (%)
On-treatment TEAE: Orthostatic hypotension (100 mg QD (N = 30)): 0 n (%)
On-treatment TEAE: Orthostatic hypotension, Mild (100 mg QD (N = 30)): 0 n (%)
On-treatment TEAE: Psychiatric disorders (100 mg QD (N = 30)): 2 (6.7) n (%)
On-treatment TEAE: Psychiatric disorders, Moderate (100 mg QD (N = 30)): 2 (6.7) n (%)
On-treatment TEAE: Urinary tract infection (100 mg QD (N = 30)): 1 (3.3) n (%)
On-treatment TEAE: Urinary tract infection, Mild (100 mg QD (N = 30)): 0 n (%)
On-treatment TEAE: Vascular disorders (100 mg QD (N = 30)): 1 (3.3) n (%)
On-treatment TEAE: Vascular disorders, Mild (100 mg QD (N = 30)): 0 n (%)
On-treatment TEAE: Vascular disorders, Moderate (100 mg QD (N = 30)): 1 (3.3) n (%)
On-treatment TEAE: any, Mild (100 mg QD (N = 30)): 9 (30.0) n (%)
On-treatment TEAE: any, Moderate (100 mg QD (N = 30)): 7 (23.3) n (%)
On-treatment TEAE: any, Severe (100 mg QD (N = 30)): 0 n (%)
Subjects with any On-treatment TEAEs leading to withdrawal from study drug (100 mg QD (N = 30)): 4 (13.3) n (%)
TEAE leading to permanent discontinuation from study drug: Activated partial thromboplastin time prolonged (100 mg QD (N = 30)): 1 (3.3) n (%)
TEAE leading to permanent discontinuation from study drug: Cardiac disorders (100 mg QD (N = 30)): 0 n (%)
TEAE leading to permanent discontinuation from study drug: Coronary artery disease (100 mg QD (N = 30)): 0 n (%)
TEAE leading to permanent discontinuation from study drug: Dizziness (100 mg QD (N = 30)): 0 n (%)
TEAE leading to permanent discontinuation from study drug: Hyperkalaemia (100 mg QD (N = 30)): 2 (6.7) n (%)
TEAE leading to permanent discontinuation from study drug: Hypertension (100 mg QD (N = 30)): 0 n (%)
TEAE leading to permanent discontinuation from study drug: Hypotension (100 mg QD (N = 30)): 1 (3.3) n (%)
TEAE leading to permanent discontinuation from study drug: Investigations (100 mg QD (N = 30)): 1 (3.3) n (%)
TEAE leading to permanent discontinuation from study drug: Metabolism and nutrition disorders (100 mg QD (N = 30)): 2 (6.7) n (%)
TEAE leading to permanent discontinuation from study drug: Nervous system disorders (100 mg QD (N = 30)): 0 n (%)
